In the assay the test system is Thy-Tau22 mice. Nature of the assay: Morris water maze spatial memory, Thy-Tau22 mice. It counts as in vivo, mouse. To be noted: 4 months. The source says:
Wild-type C57BL/6J animals of 3 months were purchased at Charles Rivers Laboratories (France) and were allow to acclimate in the animal facility for at least one week before any treatment. Thy-Tau22 transgenic colonies (C57BL/6J genetic background) were obtained by crossing heterozygous Thy-Tau22 males with C57BL/6 WT females. […] In this model, a progressive development of NFT is observed in the hippocampus and amygdala, which parallels behavioral impairments (Schindowski et al., 2006). Furthermorever, in the hippocampus, hyper- and abnormally phosphorylated Tau species accumulate within the somato-dendritic area (Schindowski et al., 2006).
For animal treatment, animals were randomly distributed and the compound of Formula I was given in the drinking water at final concentration of 0.5 or 1 mg/kg. Drinking bottles were changed once per week, volume consumption was measured along the treatment period. Food consumption and body weight were assessed. In wild-type animals the pilot study of drug treatment was performed for one month to establish the innocuousness of the treatment with the compound of Formula I. This was based on the physiological, social and behavioural assessments. Thy-Tau22 males were treated for 4 months starting at 3 month old. All protocols were approved by the local ethics committee (n^∘342012, CEEA).
Before any behavioral test, exploratory and locomotion of treated and untreated animal were evaluated in a Open field (OF) 25 cm×25 cm arena. Four acquisitions in joined arena were performed simultaneously. Each mouse was placed in the arena and allowed to explore for at least 5 min. Parameters including distance, speed, velocity were acquired by video recording using the EthoVision video tracking equipment and software (Noldus, Information Technology, Paris, France) in a dedicated room. The anxiety, which could interfere with memory test, was evaluated by the elevated plus maze (EPM). […] Locomotion, distance, speed and velocity were measured as well as the number of arm entries, time spent in the open versus closed arms, percentage of open arm entries and time per minute spent in the open arms on a total of 5 min test.
Spatial learning and memory abilities were assessed in a standard hidden-platform acquisition and retention version of the Morris water maze task (Van der Jeugd et al., 2013). […] The time required to find the hidden rescue platform (escape latency) was used as a spatial learning index and was recorded using the Ethovision XT video tracking system (Noldus France). Swimming speed and total distance were also measured. 72 h after the acquisition phase, the hidden platform was removed and spatial memory was evaluated in a 60 s probe trial. […]

1 compound from US10807958B2, “1,4-bis(3-aminopropyl)piperazine derivative and its use” (INSERM (Institut National de la Sante et de la Recherche …, priority 2015, dated 2020) can be followed below.

As for `CC(C)CN(CCCN1CCN(CCCNc2c3c(nc4ccccc24)CCCC3)CC1)CC(C)C` [compound of Formula I, N-[3-(4-{3-[Bis(2-methylpropyl)amino]propyl}piperazin-1-yl)propyl]-1,2,3,4-tetrahydroacridin-9-amine], the “probe test, spatial memory in Thy-Tau22 mice” value (0.5 mg/kg, probe test 72 hours after last learning day) is “preserved”. Moreover, the “development of spatial memory impairments (ANOVA statistical analysis)” value (Thy-Tau22 mice, 0.5 mg/kg) is reported as “protected or preserved”. Under “Thy-Tau22 treated, 0.5 mg/kg, untreated spent equal % of time, FIG. 4B”, the “time spent in the target quadrant versus the others” value is on record as “more time”. For the same compound, for the setting “WT and Thy-Tau22, treated or not with 0.5 mg/kg, FIG. 4A”, the “learning phase (distance to reach the platform) between the animal groups” value is recorded as “not significantly different”.
